Experimental data: paper PMC10398414, “Isolation and characterization of β-transducin repeat-containing protein ligands screened using a high-throughput screening system” (Oncology Research, 2023)

Key:
14-3-3 proteins = test: Binding to 14-3-3 proteins (data not shown)
SCF^β-TrCP1 = SCF^β-TrCP1 (Homo sapiens, UniProt Q9Y297); test: In vitro ubiquitination assay (GST-Wee1KR substrate, immunoblotting); type: biochemical; details: immunoblots quantitated by ImageJ
Description: Components of SCF complex (SKP1, Cul1, Rbx1, and hemagglutinin (HA)-tagged β-TrCP) were expressed in HEK293T cells. Anti-HA antibody was added into the SCF complexes expressed HEK 293T cell lysate and rotated at 4°C for 1 h. Aliquots of this mixture were added to protein G beads and rotated at 4°C for 30 min. After washing the beads in cell lysis buffer three times, the tube was centrifuged at 20,400 × g for 5 min and the supernatant was discarded. The protein on the beads was used as recombinant SCF^β-TrCP complexes. Aliquots of SCF complexes bound on the beads were then added to ubiquitination reactions (10 mM Tris pH = 7.5, 5 mM MgCl2, 1 mM DTT, 1 mM ATP, 20 mM creatine phosphate, 0.1 mg/mL creatine kinase, 5 mM NaF, 1 mM Na3VO4, 2 mg/mL ubiquitin, 0.5 μg E1 enzyme, 2 μg E2 enzyme) in a final volume of 30 µL. Compounds of 100 µM final concentration were added to reactions, and GST-Wee1KR was added as substrate 15 min later. The reaction mixtures were incubated at 37°C for 2 h and were further examined by immunoblotting.
Immunoblotting followed by in vitro ubiquitination assay was performed using anti-human Wee1A [30]. Immunoblotting in the analysis of protein degradation was performed using anti-phospho-β-catenin (Ser33/37/Thr41) antibody (1:1000, Cell Signaling Technology, Danvers, MA, USA), anti-phospho-IκBα (Ser32) (14D4), Rabbit mAb (1:1000, Cell Signaling Technology), anti-β-catenin (D10A8) (1:1000, Cell Signaling Technology), anti-IκBα antibody (1:1000, Cell Signaling Technology), and Goat polyclonal anti-rabbit IgG antibody (1:5000, Proteintech, Am Klopferspitz, Planegg-Martinsried, Germany). The transferred membrane was incubated with specific antibody, then detected using Super Signal West Pico chemiluminescent substrate (Thermo Fisher Scientific) and FUSION SOLO S (VILBER LOURMAT/MS equipment, Zi Sud torcy, Marne-la-vallee, France). The quantification of immunoblotting results was performed using ImageJ software.

HeLa cells = test: Cytotoxicity / cell death; type: cell-based; details: data not shown
Pin1 = Pin1 (Homo sapiens, UniProt Q13526); test: Binding to Pin1 (data not shown)
polo-box domain of Plk1 = polo-box domain of Plk1 (Homo sapiens, UniProt P53350); test: Binding to polo-box domain of Plk1 (data not shown)
[1] = system: NF-κB transcription activity in HeLa cells; test: NF-κB luciferase reporter assay (pGL-4.32), TNF-α induced; type: cell-based
Description: For NF-κB transcription activity, PGL-4.32 contains five copies of the NF-κB response element, which is responsible for the transcription of the luciferase reporter gene, with pRL-SV40 as the internal control. NF-κB transcription activity was determined by firefly luciferase expression and normalized by renilla luciferase level. pGL-4.32 reporter plasmids (Promega) and pRL-sv40 renilla luciferase reporter (Promega) were co-transfected into HeLa cells using Lipofectamine 3000 reagent kit. Subsequently, 24 h after transfection, cells were cultured with the compounds of different dilutions for another 24 h. Furthermore, TNF-α was added, and the plates were cultured for another 4 h. The cells were lysed, and the luminescence was measured using the Luciferase Assay System. A minimum of three samples were taken for each sample.

SKP2 = SKP2 (Homo sapiens, UniProt Q13309); test: Binding to SKP2 (data not shown)
Chain of SKP2 (Q13309 whole entry, species assumed): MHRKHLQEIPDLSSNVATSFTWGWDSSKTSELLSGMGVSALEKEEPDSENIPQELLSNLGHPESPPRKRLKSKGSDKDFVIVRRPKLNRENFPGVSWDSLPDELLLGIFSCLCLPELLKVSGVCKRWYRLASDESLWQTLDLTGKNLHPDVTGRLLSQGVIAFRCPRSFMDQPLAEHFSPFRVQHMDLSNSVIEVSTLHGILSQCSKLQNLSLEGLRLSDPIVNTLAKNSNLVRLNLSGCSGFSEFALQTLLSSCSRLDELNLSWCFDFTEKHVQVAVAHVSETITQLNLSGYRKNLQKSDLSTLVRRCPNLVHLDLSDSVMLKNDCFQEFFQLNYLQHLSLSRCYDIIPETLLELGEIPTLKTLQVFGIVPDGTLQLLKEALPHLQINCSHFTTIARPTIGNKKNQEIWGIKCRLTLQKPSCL

Chain of polo-box domain of Plk1 (P53350 326-603 limits assumed): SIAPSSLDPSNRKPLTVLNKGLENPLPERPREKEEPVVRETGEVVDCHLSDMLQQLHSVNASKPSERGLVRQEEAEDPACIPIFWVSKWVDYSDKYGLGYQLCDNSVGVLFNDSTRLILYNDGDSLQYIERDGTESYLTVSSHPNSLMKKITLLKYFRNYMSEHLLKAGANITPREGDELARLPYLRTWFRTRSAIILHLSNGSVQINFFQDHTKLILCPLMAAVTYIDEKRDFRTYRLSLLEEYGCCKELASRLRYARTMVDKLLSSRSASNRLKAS
Chain of Pin1 (Q13526 whole entry, species assumed, the tested form may be a part): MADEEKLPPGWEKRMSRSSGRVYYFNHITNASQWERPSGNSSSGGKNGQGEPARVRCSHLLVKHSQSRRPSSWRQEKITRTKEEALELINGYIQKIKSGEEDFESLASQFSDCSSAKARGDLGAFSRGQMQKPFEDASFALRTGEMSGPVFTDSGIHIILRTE
Chain of SCF^β-TrCP1 (Q9Y297 whole entry): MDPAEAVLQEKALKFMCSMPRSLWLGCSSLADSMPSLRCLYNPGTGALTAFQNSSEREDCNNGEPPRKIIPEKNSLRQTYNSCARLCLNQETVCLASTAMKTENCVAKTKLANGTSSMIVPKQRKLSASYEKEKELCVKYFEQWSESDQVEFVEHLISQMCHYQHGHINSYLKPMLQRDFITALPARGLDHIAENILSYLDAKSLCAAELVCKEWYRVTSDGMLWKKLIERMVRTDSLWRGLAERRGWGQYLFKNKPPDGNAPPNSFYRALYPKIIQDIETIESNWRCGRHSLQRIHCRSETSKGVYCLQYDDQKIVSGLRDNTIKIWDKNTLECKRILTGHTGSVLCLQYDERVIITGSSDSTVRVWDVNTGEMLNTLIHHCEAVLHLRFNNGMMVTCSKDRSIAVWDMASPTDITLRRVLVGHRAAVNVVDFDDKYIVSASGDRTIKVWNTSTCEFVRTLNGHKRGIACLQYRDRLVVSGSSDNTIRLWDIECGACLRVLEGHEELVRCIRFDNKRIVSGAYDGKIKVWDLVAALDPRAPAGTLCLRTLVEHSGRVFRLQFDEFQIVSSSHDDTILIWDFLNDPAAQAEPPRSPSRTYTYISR
Chain of SCF^β-TrCP1 (P63208 whole entry partner): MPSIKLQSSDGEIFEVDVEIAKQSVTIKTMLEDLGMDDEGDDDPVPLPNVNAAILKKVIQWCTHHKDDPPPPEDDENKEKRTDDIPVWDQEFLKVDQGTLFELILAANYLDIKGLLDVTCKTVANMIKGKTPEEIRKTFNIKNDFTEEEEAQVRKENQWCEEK
Chain of SCF^β-TrCP1 (Q13616 whole entry partner): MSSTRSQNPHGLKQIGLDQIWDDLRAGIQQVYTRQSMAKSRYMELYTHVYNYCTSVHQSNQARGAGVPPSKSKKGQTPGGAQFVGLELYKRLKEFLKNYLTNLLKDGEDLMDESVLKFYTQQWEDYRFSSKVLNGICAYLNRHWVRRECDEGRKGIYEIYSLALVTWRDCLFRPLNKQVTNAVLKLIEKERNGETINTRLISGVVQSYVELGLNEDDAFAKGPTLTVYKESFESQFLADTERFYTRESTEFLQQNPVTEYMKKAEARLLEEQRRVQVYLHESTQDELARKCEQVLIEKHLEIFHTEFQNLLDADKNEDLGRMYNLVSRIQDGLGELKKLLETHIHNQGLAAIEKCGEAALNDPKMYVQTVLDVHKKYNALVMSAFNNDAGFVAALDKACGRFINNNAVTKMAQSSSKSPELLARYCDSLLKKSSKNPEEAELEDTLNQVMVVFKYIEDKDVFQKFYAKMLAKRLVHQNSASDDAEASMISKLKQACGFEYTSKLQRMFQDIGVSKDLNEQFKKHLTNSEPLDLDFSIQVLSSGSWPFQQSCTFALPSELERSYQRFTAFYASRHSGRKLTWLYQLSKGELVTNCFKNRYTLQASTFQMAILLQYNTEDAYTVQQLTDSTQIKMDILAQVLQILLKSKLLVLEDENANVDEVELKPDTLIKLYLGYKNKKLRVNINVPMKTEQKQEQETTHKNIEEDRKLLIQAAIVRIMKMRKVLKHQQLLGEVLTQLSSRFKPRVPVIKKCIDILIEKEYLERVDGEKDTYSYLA
Chain of SCF^β-TrCP1 (P62877 whole entry partner): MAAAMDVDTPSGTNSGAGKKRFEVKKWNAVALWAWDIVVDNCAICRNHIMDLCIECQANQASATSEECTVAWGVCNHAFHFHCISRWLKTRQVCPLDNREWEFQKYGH

For `Cc1cc(O)c(C(=O)/C=C/c2cccc(O)c2)c(=O)o1` [NPD5943], the “binding to 14-3-3 proteins” value (14-3-3 proteins) was “did not observe any binding”, the IC50 (SCF^β-TrCP1) was 30 µM and the non-specific cytotoxicity (HeLa cells) was “cytotoxicity only at high concentration”. The “binding to Pin1” value (Pin1) was “did not observe any binding”, the “binding to polo-box domain of Plk1” value (polo-box domain of Plk1) was “did not observe any binding” and the “NF-κB transcription, % of that of the control group (DMSO, TNF-α)” value ([1]; 20 μM) was “approximately 20%”. The “TNF-α induced NF-κB activation of transcription” value ([1]; 24 h compound then TNF-α 4 h) was “reduced NF-κB activation dose-dependently” and the “binding to SKP2” value (SKP2) was “did not bind to SKP2 at all”.
